Read-outs that look alike come from different tables or passages of the source.
Tests used:
Assay type in all cases: cell-based
MV-4-11 cells = experiment: Effect of the compound on proliferation of MV-4-11 cells (MTS); details: Homo sapiens
Description: MV-4-11 cells were cultured with IMDM plus 10% fetal bovine serum and collected. The cell concentration was diluted according to the action time of 7 days, and 180 ul of cell suspension was added to each well of a 96-well cell plate to make the cell count to be 2000. 20 ul of DMSO with a final concentration of 0.2% was added to the control cell wells. The compound was diluted 5-fold with the 10 mM stock solution, and 20 ul was also added to the compound cell wells (the final concentration of DMSO was 0.2%). The cells were placed in a 37° C., 5% CO2 incubator and incubated for 7 days. After preparing the reaction solution according to the MTS kit (Promega, G5430), 20 μL was added to each well, incubated in a 37° C., 5% CO2 incubator for 3-4 h. Read the 490 nm absorbance value with a microtiter plate, and used the 690 nm absorbance value as the background value and OD490-OD690 as the final initial data. The formula for calculating the inhibition rate of the compound was: inhibition rate=(OD DMSO-ODcompound)/(ODDMSO-Oblank)×100%. The compound's proliferation inhibition IC50 was fitted by Graph Pad Prism 5.0. The experiment was repeated three times, and three parallel experiments were used to calculate the average and standard deviation each time. The cell viability test results were shown in Table 3: A means cell viability IC50<1 μM, B means cell viability 1 μM≤IC50≤20 μM, C means cell viability IC50>20 μM.

MM.1S cells = experiment: Effect of the compound on the proliferation of MM.1S cells (MTS); details: Homo sapiens, MM1.S, 168 h, 7 days, read-out: Cell inhibitory activity (IC50)
Description: MM.1S cells were cultured with 1640 plus 10% fetal bovine serum and collected. The cell concentration was diluted according to the action time of 7 days, and 180 ul cell suspension was added to each well of the 96-well cell plate to make the cell count to be 20,000. 20 ul of DMSO with a final concentration of 0.2% was added to the control cell wells. The compound was diluted 5-fold with the 10 mM stock solution, and 20 ul was also added to the compound cell wells (the final concentration of DMSO is 0.2%). The cells were placed in a 37° C., 5% CO2 incubator and incubated for 7 days. After preparing the reaction solution according to the MTS kit (Promega, G5430), 20 μL was added to each well, incubated in a 37° C., 5% CO2 incubator for 3-4 h. Read the 490 nm absorbance value with a microtiter plate, and used the 690 nm absorbance value as the background value and OD490-OD690 as the final initial data. The formula for calculating the inhibition rate of the compound is: inhibition rate=(OD DMSO-ODcompound)/(ODDMSO-Oblank)×100%. The compound's proliferation inhibition IC50 was fitted by Graph Pad Prism 5.0. The experiment was repeated three times, and three parallel experiments were used to calculate the average and standard deviation each time.

Mino cells = experiment: Effect of the compound on the proliferation of Mino cells (MTS); details: Homo sapiens, 72 h, 3 days, read-out: Inhibitory activity (IC50)
Description: Mino cells were cultured with 1640 plus […] and collected. The cell concentration was diluted according to the action time of 3 days, and 90 ul cell suspension was added to each well of the 96-well cell plate to make the cell count to be 8000. 10 ul of DMSO with a final concentration of 0.2% was added to the control cell wells. The compound was diluted 5-fold with the 10 mM stock solution, and 10 ul was also added to the compound cell wells (the final concentration of DMSO was 0.2%). The cells were placed in a 37° C., […] incubator and incubated for 3 days. After preparing the reaction solution according to the MTS kit (Promega, G5430), 20 μL was added to each well, incubated in a 37° C., 5% CO2 incubator for 3-4 h. Read the 490 nm absorbance value with a microtiter plate, and used the 690 nm absorbance value as the background value and OD490-OD690 as the final initial data. The formula for calculating the inhibition rate of the compound was: inhibition rate=(OD DMSO-ODcompound)/(ODDMSO-Oblank)×100%. The compound's proliferation inhibition IC50 was fitted by Graph Pad Prism 5.0. The experiment was repeated three times, and three parallel experiments were used to calculate the average and standard deviation each time.

[1] = MV4-11, 168 h, 7 days, MTS, read-out: Inhibitory activity (IC50)
[2] = MV4-11, read-out: cytostatic activity (IC50) on MV-4-11 cells

Row | SMILES | IC50 (MV-4-11 cells; [1]) | IC50 (MM.1S cells) | IC50 (MV-4-11 cells; [2]) | IC50 (Mino cells)
1 | COCCn1ccc2cc(-n3cc(COc4cccc5c4CN(C4CCC(=O)NC4=O)C5=O)nn3)ccc21 (stereo not shown) [Compound 28] | < 1000 nM | < 150 nM |  | < 150 nM
2 | Cc1nc2cccc(N)c2c(=O)n1C1CCC(=O)NC1=O (stereo not shown) [CC-122, reference compound] | > 20000 nM | < 150 nM | > 20000 nM | 150 to 20000 nM
3 | Nc1cccc2c1C(=O)N(C1CCC(=O)NC1=O)C2=O (stereo not shown) [Pomalidomide, pomalidomide, reference compound] | > 20000 nM | < 150 nM | > 20000 nM | 150 to 20000 nM
4 | O=C1CCC(N2Cc3c(OC[C@@H]4CCN(c5ccc(OC(F)(F)F)cc5)C4)cccc3C2=O)C(=O)N1 (stereo partly drawn) [Compound 70, 3-(1-oxo-4-(((R)-1-(4-(trifluoromethoxy)phenyl)pyrrolin-3-)methoxy)isoindolin-2-) piperidine-2,6-dione] | 1000 to 20000 nM | < 150 nM |  | 150 to 20000 nM
5 | O=C1CCC(N2Cc3c(OCc4cn(-c5cccc(Cl)c5Cl)nn4)cccc3C2=O)C(=O)N1 (stereo not shown) [Compound 18, 3-(4-((1-(2,3-dichlorophenyl)-1H-1,2,3-triazol-4-)methoxy)-1-oxoisoindolin-2-) piperidine-2,6-dione] | < 1000 nM | < 150 nM |  | < 150 nM
6 | O=C1CCC(N2Cc3c(OCc4cn(-c5ccc6[nH]ccc6c5)nn4)cccc3C2=O)C(=O)N1 (stereo not shown) [Compound 26, 3-(4-((1-(1H-indol-5-)-1H-1,2,3-triazol-4-)methoxy)-1-oxoisoindolin-2-) piperidine-2,6-dione] | < 1000 nM | < 150 nM |  | < 150 nM
7 | O=C1CCC(N2Cc3c(OCc4cn(-c5ccc(Cl)c(Cl)c5)nn4)cccc3C2=O)C(=O)N1 (stereo not shown) [Compound 75, 3-(4-((1-(3,4-dichlorophenyl)-1H-1,2,3-triazol-4-yl)methoxy)-1-isoindolin-2-yl) piperidine-2,6-dione] | < 1000 nM | < 150 nM |  | 
8 | O=C1CCC(N2Cc3c(OCc4cn(-c5ccc(Cl)cc5)nn4)cccc3C2=O)C(=O)N1 (stereo not shown) [Compound 74, 3-(4-((1-(4-chlorophenyl)-1H-1,2,3-triazol-4-yl)methoxy)-1-oxoisoindolin-2-yl) piperidine-2,6-dione] | < 1000 nM | < 150 nM |  | 
9 | O=C1CCC(N2Cc3c(OCc4cn(-c5ccc(N6CCOCC6)cc5)nn4)cccc3C2=O)C(=O)N1 (stereo not shown) [Compound 19, 3-(4-((1-(4-morpholinophenyl)-1H-1,2,3-triazol-4-)methoxy)-1-oxoisoindolin-2-) piperidine-2,6-dione] |  | < 150 nM |  | 150 to 20000 nM
10 | O=C1CCC(N2Cc3c(OCc4cn(C56CC7CC(CC(C7)C5)C6)nn4)cccc3C2=O)C(=O)N1 [Compound 76, 3-(4-((1-((3S, 5S, 7S)-adamantan-1-yl)-1H-1,2,3-triazol-4-yl)methoxy)-1-isoindolin-2-yl) piperidin-2,6-dione] | < 1000 nM | < 150 nM |  | 
11 | O=C1CCC(N2Cc3c(OCc4cn(-c5ccc6ncsc6c5)nn4)cccc3C2=O)C(=O)N1 (stereo not shown) [Compound 23, 3-(4-((1-(benzo [d]thiazol-6)-1H-1,2,3-triazol-4-(methoxy)-1-oxoisoindolin-2-)piperidine-2,6-dione] |  | < 150 nM |  | < 150 nM
12 | O=C1CCC(N2Cc3c(OCc4ccc(CN5CCOCC5)cc4)cccc3C2=O)C(=O)N1 (stereo not shown) [CC-220, reference compound] | > 20000 nM | < 150 nM | > 20000 nM | < 150 nM
13 | O=C1CCC(N2Cc3c(OCc4cn(-c5ccc(O[C@H]6CCOC6)cc5)nn4)cccc3C2=O)C(=O)N1 (stereo partly drawn) [Compound 25, 3-(1-oxo-4-((1-(4-(((S)-tetrahydrofuran-3-)oxy)phenyl)-1H-1,2,3-triazol-4-)methoxy)isoindolin-2-)piperidine-2,6-dione] |  | < 150 nM |  | < 150 nM
14 | COC[C@H](Cc1ccccc1)n1cc(COc2cccc3c2CN(C2CCC(=O)NC2=O)C3=O)nn1 (stereo partly shown) [Compound 55] | 1000 to 20000 nM | < 150 nM |  | 
15 | O=C1CCC(N2Cc3c(OCc4cn(-c5ccc(O[C@@H]6CCOC6)cc5)nn4)cccc3C2=O)C(=O)N1 (stereo partly drawn) [Compound 24, 3-(1-oxo-4-((1-(4-(((R)-tetrahydrofuran-3-)oxy)phenyl)-1H-1,2,3-triazol-4-)methoxy)isoindolin-2-)piperidine-2,6-dione] |  | < 150 nM |  | < 150 nM

The next lines start with results.

Row | IC50 (MV-4-11 cells; [1]) | IC50 (MM.1S cells) | IC50 (MV-4-11 cells; [2]) | SMILES | IC50 (Mino cells)
16 | < 1000 nM | < 150 nM |  | O=C1CCC(N2Cc3c(OCc4ncc(-c5ccc(OC(F)(F)F)cc5)o4)cc(F)cc3C2=O)C(=O)N1 (stereo not shown) [Compound 81, 3-(6-fluoro-1-oxo-4-((5-(4-(trifluoromethoxy)phenyl)oxazol-2-yl)methoxy)isoindolin-2-yl) piperidine-2,6-dione] | 
17 | 1000 to 20000 nM | < 150 nM |  | O=C1CCC(N2Cc3c(OCc4cn(-c5cccc(OC(F)(F)F)c5)nn4)cccc3C2=O)C(=O)N1 (stereo not shown) [Compound 20, 3-(1-oxo-4-((1-(3-(trifluoromethoxy)phenyl)-1H-1,2,3-triazol-4-)methoxy)isoindolin-2-) piperidine-2,6-dione] | < 150 nM
18 |  | < 150 nM |  | O=C1CCC(N2Cc3c(NCc4ncc(-c5ccc(OC(F)(F)F)cc5)o4)cccc3C2=O)C(=O)N1 (stereo not shown) [Compound 93] | 150 to 20000 nM
19 |  | < 150 nM |  | O=C1CCC(N2Cc3c(OCc4cnc(-c5ccc(OC(F)(F)F)cc5)s4)cccc3C2=O)C(=O)N1 (stereo not shown) [Compound 44, 3-(1-oxo-4-((2-(4-trifluoromethoxyphenyl)thiazol-5-)methoxy)isoindolin-2-) piperidine-2,6-dione] | < 150 nM
20 |  | < 150 nM |  | O=C1CCC(N2Cc3c(OCc4ncc(-c5ccc(OC(F)(F)F)cc5)o4)cccc3C2=O)C(=O)N1 (stereo not shown) [Compound 40, 3-(1-oxo-4-((5-(4-trifluoromethoxyphenyl)oxazol-2-)methoxy)isoindolin-2-) piperidine-2,6-dione] | < 150 nM
21 |  | < 150 nM |  | O=C1CCC(N2Cc3c(OCc4nnc(-c5ccc(OC(F)(F)F)cc5)o4)cccc3C2=O)C(=O)N1 (stereo not shown) [Compound 43, 3-(1-oxo-4-((5-(4-trifluoromethoxyphenyl)-1,3,4-oxadiazol-2-)methoxy)isoindolin-2-) piperidine-2,6-dione] | < 150 nM
22 | 1000 to 20000 nM | 150 to 20000 nM |  | O=C1CCC(N2Cc3c(OC[C@H]4CCN(c5ccc(OC(F)(F)F)cc5)C4)cccc3C2=O)C(=O)N1 (stereo partly drawn) [Compound 71, 3-(1-oxo-4-(((S)-1-(4-(trifluoromethoxy)phenyl)pyrrolin-3-)methoxy)isoindolin-2-) piperidine-2,6-dione] | 150 to 20000 nM
23 | < 1000 nM | < 150 nM |  | O=C1CCC(N2Cc3c(OCc4cn(-c5ccc(OC(F)(F)F)cc5)nn4)cc(F)cc3C2=O)C(=O)N1 (stereo not shown) [Compound 77, 3-(6-fluoro-1-oxo-4-((1-(4-(trifluoromethoxy)phenyl)-1H-1,2,3-triazol-4-yl)methoxy)isoindolin-2-yl) piperidine-2,6-dione] | 

Reference: US20220041578A1, “ISOINDOLINE COMPOUND, AND PREPARATION METHOD, PHARMACEUTICAL COMPOSITION, AND APPLICATION OF ISOINDOLINE COMPOUND” (Shanghai Institute of Meteria Medica, Chinese Academy of …, priority 2018, published 2022)
